In patent US10869899B2, “Isolated cells and populations comprising same for the treatment of CNS diseases” (Ramot at Tel-Aviv University Ltd., priority 2005, dated 2020):

Tested on: differentiated hBMSc
Assay: Effect of IL-1β and cabergoline on GDNF production and secretion (ELISA)
Type: cell-based, human
Details: cabergoline 130 pg/ml, IL-1β 100 pg/ml, added 24 hours after initiation of differentiation, 48 hours
Protocol: Astrocyte differentiation: To induce astrocyte differentiation, 1×10^6 cells were cultured in […]. Cells were replaced with pre-differentiation medium for 48 hours (DMEM supplemented with SPN, 2 mM L-glutamine, 20 ng/ml human epidermal growth factor hEGF (R& D, Systems, Minneapolis, Minn.), 20 ng/ml human basic fibroblast growth factor (hbFGF) and N2 supplement (insulin 5 μg/ml, progesterone 20 nM, putrescin 100 μM, selenium 30 nM, transferrin 100 μg/ml). After 48 hours, the pre-differentiation medium was changed to differentiation medium, (DMEM supplemented with SPN, 2 mM L-glutamine, 1 mM dibutyryl cyclic AMP dbcAMP, 0.5 mM isobutylmethylxanthine IBMX (Sigma-Aldrich, St. Louis, Mo., USA), 5 ng/ml human platelet derived growth factor PDGF (peprotech), and 50 ng/ml human neuregulin 1-β1 NRG1-β1-GGF-2). […]
GDNF and BDNF analysis: At the end of the differentiating procedure described above, supernatant was collected from the plate and cells were harvested and counted. The amount of GDNF or BDNF in the cell's lysate and culture supernatants was quantified by using a GDNF or BDNF ImmunoAssay System (Promega) according to the manufacture's protocol. The absorbance at 450 nm was recorded on the Microplate Reader (BioRad Model 550) and the values were used to produce the curve of the GDNF or BDNF standard. […] ELISA results were calculated according to 10^6 cells per plate.

Molecule | production and secretion of GDNF by differentiated cells following addition
C=CCN1C[C@H](C(=O)N(CCCN(C)C)C(=O)NCC)C[C@@H]2c3cccc4[nH]cc(c34)C[C@H]21 [cabergoline] | marked enhanced production and secretion of GDNF
IL-1beta: factor known to upregulate GDNF, added to the differentiation medium | marked enhanced production and secretion of GDNF
